Assay results from patent publication US12371428B2 (Exelixis, Inc., priority 2019, dated 2025).
Where a name gives a salt, the structure may show the parent alone. Read-outs that look alike come from different tables or passages of the source.

Legend:
[1] = target: Human MET (residues 956-1390) (Homo sapiens (Human), UniProt P08581); experiment: Human Met kinase assay, HTRF KinEase (Example D-2); type: biochemical; conditions: read-out: c-Met IC50
Summary of the method: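 IC50 values come from a 4-parameter logistic fit of the […] fluorescence ratio, set between DMSO (100%) and reference compound at 1 μM (0%). Reactions held MET 956-1390 at 0.1 ng/well, ATP at Km, biotinylated peptide, 5 mM MgCl2, 1 mM MnCl2, 1 mM DTT and 3% DMSO, and ran 40 min at room temperature before streptavidin-XL665/Eu-antibody detection.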

[2] = target: Human KDR (residues 790-1356) (Homo sapiens (Human), UniProt P35968); experiment: Human KDR kinase assay, HTRF KinEase (Example B-2); type: biochemical
Sequence of Human KDR (residues 790-1356) (P35968 790-1356): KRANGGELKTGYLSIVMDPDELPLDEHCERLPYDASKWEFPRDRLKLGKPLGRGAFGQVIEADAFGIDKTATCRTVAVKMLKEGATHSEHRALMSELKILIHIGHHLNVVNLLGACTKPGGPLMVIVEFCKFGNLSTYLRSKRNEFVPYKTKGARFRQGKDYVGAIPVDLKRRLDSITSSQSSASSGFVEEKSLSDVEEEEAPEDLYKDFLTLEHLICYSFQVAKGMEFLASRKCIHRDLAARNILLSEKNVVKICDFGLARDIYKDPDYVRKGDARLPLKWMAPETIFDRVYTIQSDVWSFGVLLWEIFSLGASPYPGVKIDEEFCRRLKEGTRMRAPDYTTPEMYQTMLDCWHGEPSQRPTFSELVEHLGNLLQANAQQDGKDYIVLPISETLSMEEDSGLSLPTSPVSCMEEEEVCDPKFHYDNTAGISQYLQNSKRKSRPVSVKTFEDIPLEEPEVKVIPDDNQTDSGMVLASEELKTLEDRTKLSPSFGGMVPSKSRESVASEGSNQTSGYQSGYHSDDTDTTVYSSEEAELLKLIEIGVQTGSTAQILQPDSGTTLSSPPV
Summary of the method: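 Human KDR residues 790-1356 (0.1 ng/well) in buffer with 5 mM MgCl2, 1 mM MnCl2, 1 mM DTT, biotinylated peptide substrate, ATP at Km (4.0 μM), 3% DMSO, 10 compound concentrations; 40 min, room temperature. EDTA stop, streptavidin-XL665/Eu-TK antibody HTRF read 665/620 nm; 4-parameter IC50.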

[3] = target: Human MER (residues 528-999) (Homo sapiens (Human), UniProt Q12866); experiment: Human Mer kinase assay, HTRF KinEase (Example C-2); type: biochemical
Sequence of Human MER (residues 528-999) (Q12866 528-999): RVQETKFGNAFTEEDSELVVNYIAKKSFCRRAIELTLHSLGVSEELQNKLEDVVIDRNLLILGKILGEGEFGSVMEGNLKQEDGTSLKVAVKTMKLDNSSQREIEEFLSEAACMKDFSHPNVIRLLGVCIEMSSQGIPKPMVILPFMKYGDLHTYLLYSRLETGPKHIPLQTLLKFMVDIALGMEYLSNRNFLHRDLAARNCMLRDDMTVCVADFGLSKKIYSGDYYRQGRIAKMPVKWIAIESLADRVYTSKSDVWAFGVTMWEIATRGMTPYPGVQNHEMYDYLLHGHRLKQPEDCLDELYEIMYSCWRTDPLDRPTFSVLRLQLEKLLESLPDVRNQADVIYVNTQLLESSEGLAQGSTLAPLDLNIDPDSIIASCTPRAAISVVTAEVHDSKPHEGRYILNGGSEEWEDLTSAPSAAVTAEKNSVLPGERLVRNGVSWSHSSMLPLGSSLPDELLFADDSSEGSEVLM
Summary of the method: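 IC50 values from 10 concentrations via 4-parameter logistic fit of […], with DMSO as 100% and 1 μM reference compound as 0% activity. Reaction: MER kinase domain 528-999, 1 ng/well, 40 μM ATP (Km), biotin peptide, 5 mM MgCl2, 1 mM DTT, 3% DMSO, room temperature 60 min; HTRF streptavidin-XL665/Eu-antibody detection.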

[4] = target: Met (phospho-Met, HGF-stimulated PC-3 prostate cancer cells) (Homo sapiens (Human), UniProt P08581); experiment: Met autophosphorylation ELISA in PC-3 cells (Example F); type: cell-based; conditions: cellular activity; Met autophosphorylation ELISA in PC-3 cells; read-out: c-Met IC50
Sequence of Met (phospho-Met, HGF-stimulated PC-3 prostate cancer cells) (P08581 25-1390): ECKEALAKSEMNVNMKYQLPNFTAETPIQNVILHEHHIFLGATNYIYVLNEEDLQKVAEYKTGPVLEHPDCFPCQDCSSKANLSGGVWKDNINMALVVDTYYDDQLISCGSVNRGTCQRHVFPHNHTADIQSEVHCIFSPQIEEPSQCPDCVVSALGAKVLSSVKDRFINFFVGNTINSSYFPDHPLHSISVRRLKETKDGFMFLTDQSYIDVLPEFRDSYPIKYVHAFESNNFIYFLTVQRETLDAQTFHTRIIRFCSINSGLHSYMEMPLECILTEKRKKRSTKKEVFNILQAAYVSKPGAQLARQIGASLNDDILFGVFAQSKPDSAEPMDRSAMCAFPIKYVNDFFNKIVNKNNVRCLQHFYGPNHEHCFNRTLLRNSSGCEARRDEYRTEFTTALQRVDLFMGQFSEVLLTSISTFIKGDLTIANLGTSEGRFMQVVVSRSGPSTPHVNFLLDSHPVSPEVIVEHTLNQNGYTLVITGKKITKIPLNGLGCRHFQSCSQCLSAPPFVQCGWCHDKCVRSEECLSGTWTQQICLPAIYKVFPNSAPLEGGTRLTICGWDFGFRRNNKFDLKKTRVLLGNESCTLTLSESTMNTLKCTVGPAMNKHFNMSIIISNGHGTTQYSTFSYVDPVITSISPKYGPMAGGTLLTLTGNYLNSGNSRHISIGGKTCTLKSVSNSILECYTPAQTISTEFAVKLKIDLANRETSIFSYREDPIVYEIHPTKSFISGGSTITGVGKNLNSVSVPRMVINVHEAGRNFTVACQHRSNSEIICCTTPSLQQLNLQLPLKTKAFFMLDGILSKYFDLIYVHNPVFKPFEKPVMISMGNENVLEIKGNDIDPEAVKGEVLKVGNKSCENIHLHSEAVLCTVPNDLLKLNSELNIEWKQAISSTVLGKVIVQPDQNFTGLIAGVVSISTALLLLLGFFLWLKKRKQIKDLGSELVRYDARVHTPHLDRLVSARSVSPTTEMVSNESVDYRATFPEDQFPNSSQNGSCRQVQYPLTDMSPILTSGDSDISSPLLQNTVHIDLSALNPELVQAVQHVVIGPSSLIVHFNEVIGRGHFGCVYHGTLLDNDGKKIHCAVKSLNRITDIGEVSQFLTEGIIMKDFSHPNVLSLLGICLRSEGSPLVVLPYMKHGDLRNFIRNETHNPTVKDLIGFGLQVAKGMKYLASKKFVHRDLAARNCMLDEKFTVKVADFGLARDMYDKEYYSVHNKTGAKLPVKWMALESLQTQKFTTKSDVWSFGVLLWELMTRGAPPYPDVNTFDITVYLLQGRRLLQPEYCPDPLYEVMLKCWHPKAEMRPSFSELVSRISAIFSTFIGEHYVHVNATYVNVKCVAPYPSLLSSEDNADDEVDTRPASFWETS
Summary of the method: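 Sandwich ELISA for phospho-Met (panTyr) in PC-3 lysates. Cells starved 3 h serum-free, compound 1 h (8-pt curve, 0.3% DMSO), HGF 100 ng/mL 10 min. 100% = HGF + DMSO; 0% = HGF + reference inhibitor. IC50 by 4-parameter fit.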

[5] = target: KDR (phospho-KDR, VEGF165-stimulated HUVEC cells) (Homo sapiens (Human), UniProt P35968); experiment: KDR autophosphorylation ELISA in HUVEC cells (Example G); type: cell-based; conditions: cellular activity; KDR autophosphorylation ELISA in HUVEC cells
Sequence of KDR (phospho-KDR, VEGF165-stimulated HUVEC cells) (P35968 20-1356): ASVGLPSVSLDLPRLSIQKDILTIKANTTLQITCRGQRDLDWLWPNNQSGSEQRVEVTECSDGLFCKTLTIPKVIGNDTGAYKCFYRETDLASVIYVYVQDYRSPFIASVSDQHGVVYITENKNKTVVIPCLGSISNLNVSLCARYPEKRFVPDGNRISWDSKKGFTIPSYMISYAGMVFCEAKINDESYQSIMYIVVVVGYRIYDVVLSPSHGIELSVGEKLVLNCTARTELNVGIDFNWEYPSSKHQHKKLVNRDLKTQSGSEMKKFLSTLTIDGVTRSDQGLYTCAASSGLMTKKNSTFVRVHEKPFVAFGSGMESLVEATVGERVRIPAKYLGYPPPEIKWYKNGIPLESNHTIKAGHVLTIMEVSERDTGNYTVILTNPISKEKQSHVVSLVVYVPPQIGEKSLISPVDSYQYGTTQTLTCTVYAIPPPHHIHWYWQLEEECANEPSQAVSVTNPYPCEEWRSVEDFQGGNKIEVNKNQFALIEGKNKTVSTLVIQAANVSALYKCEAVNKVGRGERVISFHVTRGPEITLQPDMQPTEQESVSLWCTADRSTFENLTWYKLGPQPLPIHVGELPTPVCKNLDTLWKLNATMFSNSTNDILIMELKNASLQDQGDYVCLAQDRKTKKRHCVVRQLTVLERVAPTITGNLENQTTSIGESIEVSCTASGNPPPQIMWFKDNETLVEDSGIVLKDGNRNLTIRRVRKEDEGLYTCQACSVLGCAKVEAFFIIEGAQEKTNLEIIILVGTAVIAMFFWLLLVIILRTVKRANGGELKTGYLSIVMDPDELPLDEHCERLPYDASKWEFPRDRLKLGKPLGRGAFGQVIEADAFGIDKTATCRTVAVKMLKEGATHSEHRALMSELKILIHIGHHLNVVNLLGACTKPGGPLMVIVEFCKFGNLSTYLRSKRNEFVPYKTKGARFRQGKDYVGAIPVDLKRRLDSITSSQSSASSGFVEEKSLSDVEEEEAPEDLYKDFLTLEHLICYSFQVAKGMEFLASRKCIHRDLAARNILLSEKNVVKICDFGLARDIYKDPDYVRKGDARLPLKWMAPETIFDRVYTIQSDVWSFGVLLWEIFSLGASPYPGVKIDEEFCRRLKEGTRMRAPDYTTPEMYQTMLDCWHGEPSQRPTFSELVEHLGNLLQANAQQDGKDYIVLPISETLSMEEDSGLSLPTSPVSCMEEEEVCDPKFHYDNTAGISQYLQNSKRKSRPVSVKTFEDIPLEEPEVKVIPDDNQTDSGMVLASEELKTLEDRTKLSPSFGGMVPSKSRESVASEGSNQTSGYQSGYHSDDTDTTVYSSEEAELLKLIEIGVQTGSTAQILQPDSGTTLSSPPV
Summary of the method: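 HUVECs were serum-starved 24 h, given compound as an 8-point dilution series (0.3% DMSO final) for 1 h, then stimulated with 100 ng/mL VEGF165 for 5 min. Lysate phospho-KDR was quantified by sandwich ELISA against a phospho-KDR standard, and IC50s came from a 4-parameter logistic fit.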

[6] = protocol of Example D-2 (other compounds)
[7] = protocol of Example B-2 (other compounds)
[8] = protocol of Example C-2 (other compounds)

Sequence of Human MET (residues 956-1390) (P08581 956-1390): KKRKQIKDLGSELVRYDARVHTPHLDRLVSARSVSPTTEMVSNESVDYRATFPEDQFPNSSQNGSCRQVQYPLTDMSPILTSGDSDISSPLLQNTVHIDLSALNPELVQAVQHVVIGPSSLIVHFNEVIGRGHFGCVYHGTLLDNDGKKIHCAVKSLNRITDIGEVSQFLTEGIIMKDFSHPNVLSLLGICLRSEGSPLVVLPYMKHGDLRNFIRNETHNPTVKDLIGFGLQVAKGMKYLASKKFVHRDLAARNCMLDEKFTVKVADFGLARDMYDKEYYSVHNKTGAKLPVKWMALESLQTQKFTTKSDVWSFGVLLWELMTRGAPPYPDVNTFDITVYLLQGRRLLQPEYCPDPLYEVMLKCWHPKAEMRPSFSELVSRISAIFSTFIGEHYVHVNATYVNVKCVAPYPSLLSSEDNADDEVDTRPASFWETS

IC50 [1, 6] [nM] | IC50 [2, 7] [nM] | IC50 [3, 8] [nM] | IC50 [4] [nM] | IC50 [5] [nM] | IC50 ([1]; protocol of Example D-2) [nM] | IC50 ([2]; protocol of Example B-2) [nM] | IC50 ([3]; protocol of Example C-2) [nM] | SMILES
< 100 | < 100 | < 100 | < 100 | < 100 |  |  |  | COc1cc2nccc(Oc3ccc(NC(=O)c4cn(OC)cc(-c5ccc(F)cc5)c4=O)cc3F)c2nc1OC [Compound 126, N-[4-[(6,7-Dimethoxy-1,5-naphthyridin-4-yl)oxy]-3-fluorophenyl]-5-(4-fluorophenyl)-1-methoxy-4-oxopyridine-3-carboxamide]
< 100 | < 100 | < 100 | < 100 | < 100 |  |  |  | COc1cc2nccc(Oc3ccc(NC(=O)c4cnc(C)c(-c5ccc(F)cc5C)c4O)cc3)c2nc1OC [Compound 174, N-[4-[(6,7-Dimethoxy-1,5-naphthyridin-4-yl)oxy]phenyl]-5-(4-fluoro-2-methylphenyl)-4-hydroxy-6-methylpyridine-3-carboxamide]
 |  |  | < 100 | < 100 | < 100 | < 100 | < 100 | COc1cc2nccc(Oc3ccc(NC(=O)c4cnc(N)n(-c5ccc(F)cc5)c4=O)cc3F)c2nc1OC [Compound 565, 2-Amino-N-[4-[(6,7-dimethoxy-1,5-naphthyridin-4-yl)oxy]-3-fluorophenyl]-1-(4-fluorophenyl)-6-oxopyrimidine-5-carboxamide]
< 100 | > 300 | < 100 | < 100 | 100 to 300 |  |  |  | COc1cc2nccc(Oc3ccc(NC(=O)c4cn(CCN5CCOCC5)cc(-c5ccc(F)cc5)c4=O)cc3F)c2nc1OC [Compound 157, N-[4-[(6,7-Dimethoxy-1,5-naphthyridin-4-yl)oxy]-3-fluorophenyl]-5-(4-fluorophenyl)-1-(2-morpholin-4-ylethyl)-4-oxopyridine-3-carboxamide]
 |  |  | < 100 | < 100 | < 100 | > 300 | < 100 | Cc1ncc(C(=O)Nc2ccc(Oc3ccnc4cc(C(C)C)cnc34)cc2)c(O)c1-c1ccc(F)cc1 [Compound 594, 5-(4-Fluorophenyl)-4-hydroxy-6-methyl-N-[4-[(7-propan-2-yl-1,5-naphthyridin-4-yl)oxy]phenyl]pyridine-3-carboxamide]
< 100 | < 100 | < 100 | < 100 | < 100 |  |  |  | COc1cc2nccc(Oc3ccc(NC(=O)c4cnc(C)c(-c5ccc(F)cc5)c4O)cc3)c2cc1OC [Compound 171, N-[4-(6,7-Dimethoxyquinolin-4-yl)oxyphenyl]-5-(4-fluorophenyl)-4-hydroxy-6-methylpyridine-3-carboxamide]
< 100 | > 300 | < 100 | < 100 | > 300 |  |  |  | CCn1cc(C(=O)Nc2ccc(Oc3ccnc4cc(OC)cnc34)cc2)c(=O)c(-c2ccc(F)cc2)c1 [Compound 169, 1-Ethyl-5-(4-fluorophenyl)-N-[4-[(7-methoxy-1,5-naphthyridin-4-yl)oxy]phenyl]-4-oxopyridine-3-carboxamide]
 |  |  | < 100 | < 100 | < 100 | 100 to 300 | < 100 | Cc1ncc(C(=O)Nc2ccc(Oc3ccnc4cc(-c5cnn(C(F)F)c5)cnc34)c(F)c2)c(O)c1-c1ccc(F)cc1 [Compound 610, N-[4-[[7-[1-(Difluoromethyl)pyrazol-4-yl]-1,5-naphthyridin-4-yl]oxy]-3-fluorophenyl]-5-(4-fluorophenyl)-4-hydroxy-6-methylpyridine-3-carboxamide hydrochloride]
 |  |  | < 100 | < 100 | < 100 | < 100 | < 100 | Cc1ncc(C(=O)Nc2ccc(Oc3ccnc4cnccc34)cc2)c(O)c1-c1ccc(F)cc1 [Compound 643, 5-(4-fluorophenyl)-4-hydroxy-6-methyl-N-[4-(1,7-naphthyridin-4-yloxy)phenyl]pyridine-3-carboxamide]
< 100 | < 100 | < 100 | < 100 | < 100 |  |  |  | COc1cc2nccc(Oc3ccc(NC(=O)c4cnc(C)c(-c5ccc(F)cc5)c4O)cc3F)c2nc1OC [Compound 28, N-[4-[(6,7-Dimethoxy-1,5-naphthyridin-4-yl)oxy]-3-fluorophenyl]-5-(4-fluorophenyl)-4-hydroxy-6-methylpyridine-3-carboxamide]
 |  |  | 100 to 300 | > 300 | < 100 | < 100 | < 100 | COc1cc2nccc(Oc3ccc(NC(=O)c4cn(C(C)C)c(C)c(-c5ccc(F)cc5)c4=O)cc3F)c2nc1NS(C)(=O)=O [Compound 581, N-[3-Fluoro-4-[[6-(methanesulfonamido)-7-methoxy-1,5-naphthyridin-4-yl]oxy]phenyl]-5-(4-fluorophenyl)-6-methyl-4-oxo-1-propan-2-ylpyridine-3-carboxamide]
 |  |  | < 100 | < 100 | < 100 | 100 to 300 | < 100 | Cc1nc(C)c(-c2ccc(F)cc2)c(O)c1C(=O)Nc1ccc(Oc2ccnc3cc(C(C)C)cnc23)cc1 [Compound 598, 5-(4-Fluorophenyl)-4-hydroxy-2,6-dimethyl-N-[4-[(7-propan-2-yl-1,5-naphthyridin-4-yl)oxy]phenyl]pyridine-3-carboxamide]
 |  |  | < 100 | > 300 | < 100 | < 100 | < 100 | COc1cc2ncnc(Oc3ccc(NC(=O)c4cn(C(C)C)cc(-c5ccc(F)cc5)c4=O)cc3F)c2nc1OC [Compound 636, N-[4-(6,7-dimethoxypyrido[3,2-d]pyrimidin-4-yl)oxy-3-fluorophenyl]-5-(4-fluorophenyl)-4-oxo-1-propan-2-ylpyridine-3-carboxamide]
 |  |  | < 100 | < 100 | < 100 | > 300 | < 100 | COc1cc2c(Oc3ccc(NC(=O)c4cnc(C)c(-c5ccc(F)cc5)c4O)cc3F)ccnc2cn1 [Compound 639, N-[3-fluoro-4-[(6-methoxy-1,7-naphthyridin-4-yl)oxy]phenyl]-5-(4-fluorophenyl)-4-hydroxy-6-methylpyridine-3-carboxamide]
 |  |  | < 100 | < 100 | < 100 | > 300 | < 100 | COc1cc2nccc(Oc3ccc(NC(=O)c4cn(CCO)c(C)c(-c5ccc(F)cc5)c4=O)cc3F)c2nc1OC [Compound 619, N-[4-[(6,7-Dimethoxy-1,5-naphthyridin-4-yl)oxy]-3-fluorophenyl]-5-(4-fluorophenyl)-1-(2-hydroxyethyl)-6-methyl-4-oxopyridine-3-carboxamide]
 |  |  | < 100 | > 300 | < 100 | > 300 | < 100 | COc1cc2nccc(Oc3ccc(NC(=O)c4cn(C(C)C)c(C)c(-c5ccc(F)cc5)c4=O)cc3F)c2nc1O [Compound 580, N-[3-Fluoro-4-[(6-hydroxy-7-methoxy-1,5-naphthyridin-4-yl)oxy]phenyl]-5-(4-fluorophenyl)-6-methyl-4-oxo-1-propan-2-ylpyridine-3-carboxamide]
